Experimental data: BindingDB's records for patent US20250282782 (Genzyme, 2025)

Target: T1, Tyrosine-protein phosphatase non-receptor type 11 (Homo sapiens, UniProt Q06124)
T1 sequence (Q06124 whole entry): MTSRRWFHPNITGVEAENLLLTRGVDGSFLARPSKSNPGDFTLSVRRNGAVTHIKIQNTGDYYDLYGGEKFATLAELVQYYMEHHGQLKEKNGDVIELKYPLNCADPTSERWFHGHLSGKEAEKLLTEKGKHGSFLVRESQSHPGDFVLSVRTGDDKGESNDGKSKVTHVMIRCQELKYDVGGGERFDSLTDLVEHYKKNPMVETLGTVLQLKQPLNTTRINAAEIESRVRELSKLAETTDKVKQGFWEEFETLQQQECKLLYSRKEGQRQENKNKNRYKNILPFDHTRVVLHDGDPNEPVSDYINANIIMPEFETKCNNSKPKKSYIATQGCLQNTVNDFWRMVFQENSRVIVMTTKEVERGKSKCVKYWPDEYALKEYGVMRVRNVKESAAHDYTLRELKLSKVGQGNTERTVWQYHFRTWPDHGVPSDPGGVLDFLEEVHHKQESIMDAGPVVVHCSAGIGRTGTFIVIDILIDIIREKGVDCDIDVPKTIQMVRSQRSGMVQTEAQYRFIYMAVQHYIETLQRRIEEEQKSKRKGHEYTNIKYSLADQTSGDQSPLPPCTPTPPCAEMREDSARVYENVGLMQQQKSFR
Assay: Inhibition of SHP2 Phosphatase Activity Assay
Protocol: Inhibition of SHP2 phosphatase activity was evaluated using human recombinant 6His-Nterm (SEQ ID NO: 1) SHP2 full-length (Thr2-Arg593, R&D system), NsCs bi-phosphorylated activating peptide (NH2-LN(pY)AQLWHA(PEG8)LTI(pY)ATIRRF-Amide.acetate (SEQ ID NO: 2), Thermofischer Scientific) and DiFMUP as surrogate phosphatase substrate (Molecular Probes). All reactions were performed at room temperature in 384-well black polystyrene non-binding plate (Corning) with the assay buffer (50 mM HEPES-NaOH pH 7.2, 100 mM NaCl, 0.5 mM EDTA, 0.001% Brij35 including 0.02% BSA and 1 mM DTT added extemporaneously). SHP2 was pre-incubated at least 10 min with the activating peptide (0.2 nM and 100 nM, respectively). 10 μL of this mixture was added to the assay plate, that already contained 15 nL of the compound (1000-0.05 nM). After 30 min pre-incubation, the enzymatic reaction was initiated by the addition of 5 μL DiFMUP in assay buffer without BSA (20 μM). The reaction was stopped by the addition of 15 μL sodium pervanadate solution (100 μM) after 45 min incubation. The fluorescence signal was measured at excitation and emission wavelengths of 350 nm and 450 nm, respectively, using a Pherastar instrument (BMG-LabTech).

SMILES	IC50
Cc1ccc(F)c(-c2c(C)nc(N3CCC4(CC3)Cc3ncccc3[C@H]4N)c3ccnn23)c1 [US20250282782, Compound 205]	11 nM
Cc1nc(N2CCC3(CC2)Cc2ncccc2[C@H]3N)c2ccnn2c1-c1cc2c(cc1F)OCCO2 [US20250282782, Compound 58]	35 nM
Cc1cc2c(cn1)CC1(CCN(c3nc(C)c(-c4cnn(C)c4C)n4nccc34)CC1)[C@@H]2N [US20250282782, Compound 113]	28 nM
Cc1nc(N2CCC3(CC2)Cc2ncsc2[C@H]3N)c2ccnn2c1-c1cnn(C)c1C [US20250282782, Compound 72]	27 nM
Cc1nc(N2CCC3(CC2)Cc2scnc2[C@H]3N)c2ccnn2c1-c1ccccc1F [US20250282782, Compound 66]	22 nM
Cc1nc(N2CCC3(CC2)Cc2scnc2[C@H]3N)c2ccnn2c1-c1cnn(C)c1C [US20250282782, Compound 67]	115 nM
